In the NIST ThermoML archive (doi:10.1021/je800560b):
Where “and” joins values, the source holds several entries; their conditions need not be identical. Equal entries are not always repeated.

Details: Liquid

O=[Si] [silicon monooxide]
Details	vapor or sublimation pressure
1301 K	0.00029 kPa and 0.00016 kPa
1315 K	0.0004 kPa and 0.00024 kPa
1325 K	0.0005 kPa and 0.00032 kPa
1335 K	0.00064 kPa and 0.0004 kPa
1350 K	0.00088 kPa and 0.00089 kPa and 0.00057 kPa
1364 K	0.00123 kPa and 0.00082 kPa
1374 K	0.00155 kPa and 0.00152 kPa and 0.00103 kPa
1399 K	0.0026 kPa and 0.00175 kPa
1421 K	0.0042 kPa and 0.00287 kPa
1433 K	0.0054 kPa and 0.0037 kPa
1446 K	0.0071 kPa and 0.0048 kPa
1470 K	0.0116 kPa and 0.0114 kPa and 0.0079 kPa
1495 K	0.0185 kPa and 0.0177 kPa and 0.0127 kPa
1519 K	0.029 kPa and 0.027 kPa and 0.0201 kPa
